Structures can show the parent of a compound that is named as a salt.

This is an account of results in patent EP0346929B1, “Treating agent for Raynaud's disease” (DAIICHI PHARMACEUTICAL CO., LTD., priority 1988, dated 1989).

The test has as its system Laurate-Induced Peripheral Arterial Occlusive Diseases in Rats. Put plainly: Effect on progression of laurate-induced peripheral arterial occlusive diseases in rats. It counts as in vivo. As to the method: Effect on Progression of Laurate-Induced Peripheral Arterial Occlusive Diseases in Rats
Male Wister-Imamichi rats weighing from 370 to 422 g (purchased from Dobutsu Hanshoku Kenkyukai) were used as test animals.
Rats were anesthetized with pentobarbital (50 mg/kg, i.p.), and the right femoral artery was exposed by surgical incision. 0.1 mℓ of a sodium laurate solution (1 mg of lauric acid/mℓ-saline, pH=8.0) was injected to the right femoral artery, haemostasis was secured by application of a surgical binding "Alonalpha" (a trade name, produced by Toa Gosei Kagaku Co.) to the punctured site of the artery, and the incision was closed with the surgical binding. The animals were then fed ad lib.
The degree of the lesions was graded to 0 - IV, 4 days after the operation for gangrene and 6 days after the operation for mummification or falling off as follows: normal apperance, 0; the affected region was limited to the nail parts, I; to the fingers, II; to the whole paw, III; and extended to the lower leg, IV.
As a test compound, 6-(1-imidazolylmethyl)-5,6,7,8-tetrahydronaphthalene-2-carboxylic acid hydrochloride 1/2 hydrate (hereinafter referred to as Compound A) was dissolved in physiological saline and administered to the left femoral vein at a dose of 3 mg/5 mℓ/kg 5 minutes before the laurate injection to the femoral artery. The effect of the Compound A on suppression of the lesions were examined. The animals in control group were injected with 5 mℓ/kg of saline alone in place of the Compound A. The results obtained are shown in Table 1 below.

As to `O=C(O)c1ccc2c(c1)CCC(Cn1ccnc1)C2` (centres unmarked) [Compound A, 6-(1-imidazolylmethyl)-5,6,7,8-tetrahydronaphthalene-2-carboxylic acid hydrochloride 1/2 hydrate], for the setting “grade 0 = normal apperance, 3 mg/5 mℓ/kg into left femoral vein 5 minutes before laurate injection, 4 days after operation”, the “Number of Animals Suffering From: Gangrene After 4 Days, grade 0” value was 2. For the same compound, the “Number of Animals Suffering From: Mummification or Falling Off After 6 Days, grade 0” value (grade 0 = normal apperance, 3 mg/5 mℓ/kg into left femoral vein 5 minutes before laurate injection, 6 days after operation) came to 2. Besides, the “Number of Animals Suffering From: Gangrene After 4 Days, grade I” value (grade I = affected region limited to the nail parts, 3 mg/5 mℓ/kg into left femoral vein 5 minutes before laurate injection, 4 days after operation) came to 3. Further, the “Number of Animals Suffering From: Mummification or Falling Off After 6 Days, grade I” value (grade I = affected region limited to the nail parts, 3 mg/5 mℓ/kg into left femoral vein 5 minutes before laurate injection, 6 days after operation) amounted to 1. Further, the “Number of Animals Suffering From: Gangrene After 4 Days, grade II” value (grade II = affected region limited to the fingers, 3 mg/5 mℓ/kg into left femoral vein 5 minutes before laurate injection, 4 days after operation) is listed as 2. Moreover, the “Number of Animals Suffering From: Mummification or Falling Off After 6 Days, grade II” value (grade II = affected region limited to the fingers, 3 mg/5 mℓ/kg into left femoral vein 5 minutes before laurate injection, 6 days after operation) is 3. The “Number of Animals Suffering From: Mummification or Falling Off After 6 Days, grade III” value (grade III = affected region limited to the whole paw, 3 mg/5 mℓ/kg into left femoral vein 5 minutes before laurate injection, 6 days after operation) is 1. For the same compound, where the note is “intravenous injection of 3 mg/kg, compared with control group”, the grade of lesions entry is “reduced the grade of lesions”.
